Test results published in PubChem BioAssay AID248 (DTP/NCI, 2004).
Inconclusive results and toxic doses are left out. No stated cut-off is given here; in the data, active means T/C of 150% or more; inactive means T/C below 125%.

Test system: L1210 leukemia ip in BDF1 mice, survival T/C
Assay: NCI In Vivo Anticancer Drug Screen. Data for tumor model L1210 Leukemia (intraperitoneal) in B6D2F1 (BDF1) mice
Settings: endpoint: mean survival time, higher = longer survival
Summary of the method: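 Tumor cells were implanted, animals were treated, and survival was followed. The result divides the treated measurement by the vehicle-control measurement.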

[1] = dose: 100.0 mg/kg/injection, schedule: Q01DX001 (ip), vehicle: saline
[2] = dose: 400.0 mg/kg/injection, schedule: Q01DX001 (ip), vehicle: saline
[3] = dose: 100.0 mg/kg/injection, schedule: Q04DX003 (ip), vehicle: Klucel (hydroxypropylcellulose) (HPC)
[4] = dose: 200.0 mg/kg/injection, schedule: Q04DX003 (ip), vehicle: Klucel (hydroxypropylcellulose) (HPC)
[5] = dose: 400.0 mg/kg/injection, schedule: Q04DX003 (ip), vehicle: Klucel (hydroxypropylcellulose) (HPC)
[6] = dose: 200.0 mg/kg/injection, schedule: Q01DX001 (ip), vehicle: saline
[7] = dose: 100.0 mg/kg/injection, schedule: Q04DX002 (ip), vehicle: saline with Tween-80
[8] = dose: 200.0 mg/kg/injection, schedule: Q04DX002 (ip), vehicle: saline with Tween-80
[9] = dose: 400.0 mg/kg/injection, schedule: Q04DX002 (ip), vehicle: saline with Tween-80
[10] = dose: 100.0 mg/kg/injection, schedule: Q01DX001 (ip), vehicle: saline with Tween-80
[11] = dose: 100.0 mg/kg/injection, schedule: Q01DX009 (ip), vehicle: saline with Tween-80
[12] = dose: 200.0 mg/kg/injection, schedule: Q01DX009 (ip), vehicle: saline with Tween-80
[13] = dose: 100.0 mg/kg/injection, schedule: Q04DX003 (ip), vehicle: saline
[14] = dose: 200.0 mg/kg/injection, schedule: Q04DX003 (ip), vehicle: saline
[15] = dose: 400.0 mg/kg/injection, schedule: Q04DX003 (ip), vehicle: saline

Measured: T/C

CCOc1ccc(/C=N/NC(=O)c2cccc3ccccc23)cc1OCC
inactive: [1] 90 % of control | [2] 90 % of control

CN1CN(c2ccccc2)C2(CCN(Cc3cc(=O)c4ccccc4o3)CC2)C1=O
inactive: [3] 102 % of control | [4] 101 % of control | [5] 98 % of control

C[N+]1(C)C2CCC1[C@H](C(=O)[O-])[C@@H](O)C2 (some centres not stated)
inactive: [1] 103 % of control | [6] 93 % of control | [2] 98 % of control

Cc1ccc(N=C=O)cc1[N+](=O)[O-]
inactive: dose: 100.0 mg/kg/injection, schedule: Q01DX009 (ip), vehicle: gum acacia 100 % of control | dose: 100.0 mg/kg/injection, schedule: Q04DX003 (ip), vehicle: gum acacia 98 % of control | dose: 200.0 mg/kg/injection, schedule: Q01DX009 (ip), vehicle: gum acacia 89 % of control | dose: 200.0 mg/kg/injection, schedule: Q04DX003 (ip), vehicle: gum acacia 101 % of control | dose: 400.0 mg/kg/injection, schedule: Q01DX009 (ip), vehicle: gum acacia 94 % of control | dose: 400.0 mg/kg/injection, schedule: Q04DX003 (ip), vehicle: gum acacia 90 % of control

O/N=C1/CCCCc2ccccc21
inactive: [1] 105 % of control | [6] 110 % of control | [2] 96 % of control

CCc1ccccc1NC(=O)Nc1ccc(Cl)c(Cl)c1
inactive: dose: 100.0 mg/kg/injection, schedule: Q01DX009 (ip), vehicle: Klucel (hydroxypropylcellulose) (HPC) 88 % of control | [3] 98 % of control | dose: 200.0 mg/kg/injection, schedule: Q01DX009 (ip), vehicle: Klucel (hydroxypropylcellulose) (HPC) 96 % of control | [4] 93 % of control | dose: 400.0 mg/kg/injection, schedule: Q01DX009 (ip), vehicle: Klucel (hydroxypropylcellulose) (HPC) 88 % of control | [5] 104 % of control

O=C(O)CNC(=O)c1cccc(Cl)c1
inactive: [7] 95 % of control | [8] 95 % of control | [9] 95 % of control

CSCC#N
inactive: [10] 93 % of control | dose: 200.0 mg/kg/injection, schedule: Q01DX001 (ip), vehicle: saline with Tween-80 96 % of control | dose: 400.0 mg/kg/injection, schedule: Q01DX001 (ip), vehicle: saline with Tween-80 96 % of control

CCOC(=O)C(C(=O)OCC)C(CC)c1ccccc1 (configuration not stated)
inactive: [11] 101 % of control | [7] 103 % of control | [12] 92 % of control | [8] 100 % of control | dose: 400.0 mg/kg/injection, schedule: Q01DX009 (ip), vehicle: saline with Tween-80 95 % of control | [9] 95 % of control

C(=C/c1ccccn1)/c1ccccc1
inactive: dose: 100.0 mg/kg/injection, schedule: Q04DX002 (ip), vehicle: Klucel (hydroxypropylcellulose) (HPC) 100 % of control | dose: 200.0 mg/kg/injection, schedule: Q04DX002 (ip), vehicle: Klucel (hydroxypropylcellulose) (HPC) 103 % of control | dose: 400.0 mg/kg/injection, schedule: Q04DX002 (ip), vehicle: Klucel (hydroxypropylcellulose) (HPC) 122 % of control

O=C(Nc1ccccc1C(=O)c1ccccc1)c1ccc(Cl)cc1Cl
inactive: dose: 50.0 mg/kg/injection, schedule: Q01DX009 (ip), vehicle: saline with Tween-80 105 % of control | [11] 94 % of control | [12] 87 % of control

O=[N+]([O-])c1ccc2c(c1)COCO2
inactive: dose: 100.0 mg/kg/injection, schedule: Q04DX003 (ip), vehicle: saline with Tween-80 95 % of control | dose: 200.0 mg/kg/injection, schedule: Q04DX003 (ip), vehicle: saline with Tween-80 95 % of control | dose: 400.0 mg/kg/injection, schedule: Q04DX003 (ip), vehicle: saline with Tween-80 97 % of control

CCOC(=O)c1cc([N+](=O)[O-])c([N+](=O)[O-])cc1Cl
inactive: dose: 12.5 mg/kg/injection, schedule: Q04DX003 (ip), vehicle: Klucel (hydroxypropylcellulose) (HPC) 102 % of control | dose: 25.0 mg/kg/injection, schedule: Q04DX003 (ip), vehicle: Klucel (hydroxypropylcellulose) (HPC) 103 % of control | dose: 50.0 mg/kg/injection, schedule: Q04DX003 (ip), vehicle: Klucel (hydroxypropylcellulose) (HPC) 98 % of control

Nc1nc(-c2ccccc2N=NN2CCOCC2)nc2ccccc12
inactive: [3] 101 % of control | [4] 103 % of control | [5] 101 % of control

COc1ccc2cc(C)ncc2c1
inactive: [1] 96 % of control | [6] 91 % of control | [2] 91 % of control

ICC1OC(c2ccccc2)OC2C(CI)OC(c3ccccc3)OC12 (configuration not stated)
inactive: dose: 75.0 mg/kg/injection, schedule: Q01DX001 (ip), vehicle: carboxymethylcellulose (CMC) 95 % of control | dose: 150.0 mg/kg/injection, schedule: Q01DX001 (ip), vehicle: carboxymethylcellulose (CMC) 93 % of control | dose: 300.0 mg/kg/injection, schedule: Q01DX001 (ip), vehicle: carboxymethylcellulose (CMC) 88 % of control

CN(C)C=Nc1c(I)cc(I)c(CCC(=O)O)c1I
inactive: [1] 96 % of control | [6] 96 % of control | [2] 94 % of control

[O-][n+]1onc2ccccc21
inactive: [10] 97 % of control

CCCCCCCCc1cc2c(c3c1CCCC3)CCC1CCCCC21 (configuration not stated)
inactive: [1] 104 % of control | [6] 98 % of control | [2] 101 % of control

O=C1c2ccccc2C(=O)c2c(O)c(N3CCCCC3)cc(O)c21
inactive: dose: 100.0 mg/kg/injection, schedule: Q01DX009 (ip), vehicle: saline 91 % of control | [13] 88 % of control | dose: 200.0 mg/kg/injection, schedule: Q01DX009 (ip), vehicle: saline 89 % of control | [14] 88 % of control | dose: 400.0 mg/kg/injection, schedule: Q01DX009 (ip), vehicle: saline 94 % of control | [15] 92 % of control

O=C1c2cc([N+](=O)[O-])ccc2-c2c(F)cc(F)cc21
inactive: [13] 104 % of control | [14] 89 % of control | [15] 91 % of control
